Data published in PMC6637425 (ChemMedChem, 2019).
Like-named read-outs stand apart in the source and are kept apart here.

Experiments:
[1] = molecular target: T1, BACE2 enzyme (Homo sapiens, UniProt Q9Y5Z0); assay: BACE2 enzyme inhibition, Ki from kinetic data under tight-binding conditions; format: biochemical; conditions: for selectivity for BACE2 over BACE1: ratio of Ki values
T1 sequence (Q9Y5Z0 63-518): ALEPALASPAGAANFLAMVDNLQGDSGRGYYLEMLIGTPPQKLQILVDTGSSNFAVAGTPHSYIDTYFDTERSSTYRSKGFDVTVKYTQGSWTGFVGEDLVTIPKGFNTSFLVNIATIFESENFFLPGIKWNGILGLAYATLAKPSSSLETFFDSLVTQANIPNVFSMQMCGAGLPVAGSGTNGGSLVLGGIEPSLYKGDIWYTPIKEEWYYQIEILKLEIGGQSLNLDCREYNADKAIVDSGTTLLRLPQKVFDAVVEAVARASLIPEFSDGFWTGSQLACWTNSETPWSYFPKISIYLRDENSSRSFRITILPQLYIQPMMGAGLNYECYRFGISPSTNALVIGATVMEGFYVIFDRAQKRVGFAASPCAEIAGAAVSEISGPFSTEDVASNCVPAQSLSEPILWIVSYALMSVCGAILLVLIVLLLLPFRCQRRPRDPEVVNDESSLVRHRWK

[2] = molecular target: BACE1 enzyme (Homo sapiens, UniProt P56817); assay: BACE1 enzyme inhibition, Ki from kinetic data under tight-binding conditions; format: biochemical
[3] = read-out: Ki (nM) BACE2, Table 3
[4] = read-out: Ki (nM) BACE1, Table 3
[5] = Ki (nM) BACE2, Table 1, new inhibitors 2f-j
[6] = Ki (nM) BACE1, Table 1, new inhibitors 2f-j
[7] = read-out: Ki (nM) BACE2, Table 2
[8] = read-out: Ki (nM) BACE1, Table 2

Chain of BACE1 enzyme (P56817 46-501): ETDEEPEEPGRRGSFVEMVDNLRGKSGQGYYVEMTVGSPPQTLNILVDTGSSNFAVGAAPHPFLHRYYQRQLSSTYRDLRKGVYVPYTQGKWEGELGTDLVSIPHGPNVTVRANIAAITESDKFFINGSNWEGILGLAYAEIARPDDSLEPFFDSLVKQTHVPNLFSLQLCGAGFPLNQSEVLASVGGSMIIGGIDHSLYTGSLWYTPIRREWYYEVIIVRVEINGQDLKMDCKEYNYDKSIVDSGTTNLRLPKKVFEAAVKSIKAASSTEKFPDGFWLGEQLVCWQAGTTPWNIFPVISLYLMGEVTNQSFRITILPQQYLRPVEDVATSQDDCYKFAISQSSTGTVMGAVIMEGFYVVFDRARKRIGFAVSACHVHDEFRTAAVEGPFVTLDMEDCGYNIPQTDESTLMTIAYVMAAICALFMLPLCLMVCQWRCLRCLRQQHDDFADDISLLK

COc1cccc(CNC[C@@H](O)[C@H](Cc2ccccc2)NC(=O)c2cc(C)cc(C(=O)N(C)C(C)c3nc(C)co3)c2)c1 (mixture of isomers) [inhibitor 3o, N^1-((2S,3R)-3-Hydroxy-4-((3-methoxybenzyl)ammo)-1-phenylbutan-2-yl)-N^3,5-dimethyl-N^3-(1-(4-methyloxazol-2-yl)ethyl)isophthalamide]
selectivity for BACE2 over BACE1 [1]: no appreciable selectivity
Ki [1, 3]: 801 nM
Ki [2, 4]: 767 nM

COC[C@H]1CCCN1C(=O)c1cccc(C(=O)N[C@@H](Cc2ccccc2)[C@H](O)CN[C@H](C(=O)NCC(C)C)[C@H](C)O)c1 [inhibitor 2f, N-((2S,3R)-3-Hydroxy-4-(((2S,3S)-3-hydroxy-1-(isobutylamino)-1-oxobutan-2-yl)amino)-1-phenylbutan-2-yl)-3-((R)-2-(methoxymethyl)pyrrolidine-1-carbonyl)benzamide]
Ki [1, 5]: 1370 nM
Ki [2, 6]: 3020 nM

CCC[C@H](O)[C@H](NC[C@@H](O)[C@H](Cc1ccccc1)NC(=O)c1cc(C)cc(C(=O)N2CCC[C@@H]2COC)c1)C(=O)NCC(C)C [inhibitor 2g, N-((2S,3R)-3-Hydroxy-4-(((2S,3S)-3-hydroxy-1-(isobutylamino)-1-oxohexan-2-yl)amino)-1-phenylbutan-2-yl)-3-((R)-2-(methoxymethyl)pyrrolidine-1-carbonyl)-5-methylbenzamide]
Ki [1, 5]: 27.9 nM
Ki [2, 6]: 6.6 nM

Cc1cc(C(=O)N[C@@H](Cc2ccccc2)[C@H](O)CN[C@H](C(=O)NCC(C)C)[C@H](C)O)cc(C(=O)N(C)Cc2nc(C)cs2)c1 [inhibitor 2h, N^1-((2S,3R)-3-Hydroxy-4-(((2S,3S)-3-hydroxy-1-(isobutylamino)-1-oxobutan-2-yl)amino)-1-phenylbutan-2-yl)-N^3,5-dimethyl-N^3-((4-methylthiazol-2-yl)methyl)isophthalamide]
Ki [1, 5]: 96.9 nM
selectivity for BACE2 over BACE1 [1]: 2 fold
Ki [2, 6]: 176 nM

CCC[C@H](O)[C@H](NC[C@@H](O)[C@H](Cc1ccccc1)NC(=O)c1cccc(C(=O)N(C)Cc2nc(C)cs2)c1)C(=O)NCC(C)C [inhibitor 2i, N^1-((2S,3R)-3-Hydroxy-4-(((2S,3S)-3-hydroxy-1-(isobutylamino)-1-oxohexan-2-yl)amino)-1-phenylbutan-2-yl)-N^3-methyl-N^3-((4-methylthiazol-2-yl)methyl)isophthalamide]
Ki [1, 5]: 51.1 nM
Ki [2, 6]: 33.1 nM

CCC[C@H](O)[C@H](NC[C@@H](O)[C@H](Cc1ccccc1)NC(=O)c1cc(C)cc(C(=O)N(C)Cc2nc(C)cs2)c1)C(=O)NCC(C)C [inhibitor 2j, N^1-((2S,3R)-3-Hydroxy-4-(((2S,3S)-3-hydroxy-1-(isobutylamino)-1-oxohexan-2-yl)amino)-1-phenylbutan-2-yl)-N^3,5-dimethyl-N^3-((4-methylthiazol-2-yl)methyl)isophthalamide]
Ki [1, 5]: 25.3 nM
Ki [2, 6]: 34.2 nM

COc1cccc([C@@H](NC[C@@H](O)[C@H](Cc2ccccc2)NC(=O)c2cc(C(=O)N[C@H](C)c3ccccc3)cc(N(C)S(C)(=O)=O)c2)[C@H](C)O)c1 [inhibitor 3a, N^1-((2S,3R)-3-Hydroxy-4-(((1R,2S)-2-hydroxy-1-(3-methoxyphenyl)propyl)ammo)-1-phenylbutan-2-yl)-5-(N-methylmethylsulfonamido)-N^3-((R)-1-phenylethyl)isophthalamide]
Ki ([1]; read-out: BACE2 Ki): 731 nM
Ki [1, 7]: 731 nM
Ki ([2]; read-out: BACE1 Ki): 205 nM
Ki [2, 8]: 205 nM

COc1cccc([C@@H](NC[C@@H](O)[C@H](Cc2ccccc2)NC(=O)c2cc(C(=O)N(C)[C@H](C)c3ccccc3)cc(N(C)S(C)(=O)=O)c2)[C@H](C)O)c1 [inhibitor 3b, N^1-((2S,3R)-3-Hydroxy-4-(((1R,2S)-2-hydroxy-1-(3-methoxyphenyl)propyl)ammo)-1-phenylbutan-2-yl)-N^3-methyl-5-(N-methylmethylsulfonamido)-N^3-((R)-1-phenylethyl)isophthalamide]
Ki [1, 7]: 479 nM
Ki [2, 8]: 4850 nM

COc1cccc([C@@H](NC[C@@H](O)[C@H](Cc2ccccc2)NC(=O)c2cccc(C(=O)N(C)[C@H](C)c3ccccc3)c2)[C@H](C)O)c1 [inhibitor 3c, N^1-((2S,3R)-3-Hydroxy-4-(((1R,2S)-2-hydroxy-1-(3-methoxyphenyl)propyl)ammo)-1-phenylbutan-2-yl)-N^3-methyl-N^3-((R)-1-phenylethyl)isophthalamide]
selectivity for BACE2 over BACE1 [1]: 54 fold
Ki [1, 7]: 950 nM
Ki [2, 8]: 51300 nM

COc1cccc([C@@H](NC[C@@H](O)[C@H](Cc2ccccc2)NC(=O)c2cc(C)cc(C(=O)N(C)[C@H](C)c3ccccc3)c2)[C@H](C)O)c1 [inhibitor 3d, N^1-((2S,3R)-3-Hydroxy-4-(((1R,2S)-2-hydroxy-1-(3-methoxyphenyl)propyl)amino)-1-phenylbutan-2-yl)-N^3,5-dimethyl-N^3-((R)-1-phenylethyl)isophthalamide]
Ki ([1]; Ki (nM) BACE2, Table 2): 480 nM
selectivity for BACE2 over BACE1 [1]: 34 fold
Ki ([2]; Ki (nM) BACE1, Table 2): 16200 nM

CCC[C@H](O)[C@H](NC[C@@H](O)[C@H](Cc1ccccc1)NC(=O)c1cccc(C(=O)N(C)[C@H](C)c2ccccc2)c1)c1cccc(OC)c1 [inhibitor 3e, N^1-((2S,3R)-3-Hydroxy-4-(((1R,2S)-2-hydroxy-1-(3-methoxyphenyl)pentyl)amino)-1-phenylbutan-2-yl)-N^3-methyl-N^3-((R)-1-phenylethyl)isophthalamide]
Ki ([1]; Ki (nM) BACE2, Table 2): 243 nM
selectivity for BACE2 over BACE1 [1]: 159 fold
Ki ([2]; Ki (nM) BACE1, Table 2): 38600 nM

CCC[C@H](O)[C@H](NC[C@@H](O)[C@H](Cc1ccccc1)NC(=O)c1cc(C)cc(C(=O)N(C)[C@H](C)c2ccccc2)c1)c1cccc(OC)c1 [inhibitor 3f, N^1-((2S,3R)-3-Hydroxy-4-(((1R,2S)-2-hydroxy-1-(3-methoxyphenyl)pentyl)ammo)-1-phenylbutan-2-yl)-N^3,5-dimethyl-N^3-((R)-1-phenylethyl)isophthalamide]
selectivity for BACE2 over BACE1 [1]: 62 fold
Ki [1, 7]: 141 nM
Ki [2, 8]: 8800 nM

CCC[C@H](O)[C@H](NC[C@@H](O)[C@H](Cc1ccccc1)NC(=O)c1cccc(C(=O)N(C)[C@H](C)c2ccccc2)c1)c1ccccc1 [inhibitor 3g, N^1-((2S,3R)-3-Hydroxy-4-(((1R,2S)-2-hydroxy-1-phenylpentyl)ammo)-1-phenylbutan-2-yl)-N^3-methyl-N^3-((R)-1-phenylethyl)isophthalamide]
Ki [1, 7]: 2550 nM
Ki [2, 8]: 42500 nM

CCC[C@H](O)[C@H](NC[C@@H](O)[C@H](Cc1ccccc1)NC(=O)c1cc(C)cc(C(=O)N(C)[C@H](C)c2ccccc2)c1)c1ccccc1 [inhibitor 3h, N^1-((2S,3R)-3-Hydroxy-4-(((1R,2S)-2-hydroxy-1-phenylpentyl)amino)-1-phenylbutan-2-yl)-N3,5-dimethyl-N^3-((R)-1-phenylethyl)isophthalamide]
Ki ([1]; Ki (nM) BACE2, Table 2): 905 nM
Ki ([2]; Ki (nM) BACE1, Table 2): 18100 nM

COc1cccc(CNC[C@@H](O)[C@H](Cc2ccccc2)NC(=O)c2cccc(C(=O)N(C)[C@H](C)c3ccccc3)c2)c1 [inhibitor 3i, N^1-((2S,3R)-3-Hydroxy-4-((3-methoxybenzyl)ammo)-1-phenylbutan-2-yl)-N^3-methyl-N^3-((R)-1-phenylethyl)isophthalamide]
Ki ([1]; read-out: BACE2 Ki): 39.4 nM
Ki [1, 3]: 39.5 nM
Ki [2, 4]: 2080 nM

COc1cccc(CNC[C@@H](O)[C@H](Cc2ccccc2)NC(=O)c2cc(C)cc(C(=O)N(C)[C@H](C)c3ccccc3)c2)c1 [inhibitor 3j, N^1-((2S,3R)-3-Hydroxy-4-((3-methoxybenzyl)ammo)-1-phenylbutan-2-yl)-N3,5-dimethyl-N^3-((R)-1-phenylethyl)isophthalamide]
selectivity for BACE2 over BACE1 [1]: ~60 fold
Ki [1, 3]: 14 nM
Ki [2, 4]: 837 nM

C[C@H](c1ccccc1)N(C)C(=O)c1cccc(C(=O)N[C@@H](Cc2ccccc2)[C@H](O)CNCc2cccc(C(F)(F)F)c2)c1 [inhibitor 3k, N^1-((2S,3R)-3-Hydroxy-1-phenyl-4-((3-(trifluoromethyl)benzyl)amino)butan-2-yl)-N^3-methyl-N^3-((R)-1-phenylethyl)isophthalamide]
Ki ([1]; BACE2 Ki): 35.7 nM
Ki ([1]; Ki (nM) BACE2, Table 3): 35.7 nM
selectivity for BACE2 over BACE1 [1]: 37 fold
Ki ([2]; Ki (nM) BACE1, Table 3): 1350 nM

Cc1cc(C(=O)N[C@@H](Cc2ccccc2)[C@H](O)CNCc2cccc(C(F)(F)F)c2)cc(C(=O)N(C)[C@H](C)c2ccccc2)c1 [inhibitor 3l, N^1-((2S,3R)-3-Hydroxy-1-phenyl-4-((3-(trifluoromethyl)benzyl)ammo)butan-2-yl)-N^3,5-dimethyl-N^3-((R)-1-phenylethyl)isophthalamide]
selectivity for BACE2 over BACE1 [1]: over 500 fold
Ki [1, 3]: 1.6 nM
Ki [2, 4]: 815 nM

COc1cccc(CNC[C@@H](O)[C@H](Cc2ccccc2)NC(=O)c2cccc(C(=O)N(C)Cc3nc(C)co3)c2)c1 [inhibitor 3m, N^1-((2S,3R)-3-Hydroxy-4-((3-methoxybenzyl)amino)-1-phenylbutan-2-yl)-N^3-methyl-N^3-((4-methyloxazol-2-yl)methyl)isophthalamide]
Ki ([1]; Ki (nM) BACE2, Table 3): 7330 nM
Ki ([2]; Ki (nM) BACE1, Table 3): 68.8 nM
selectivity for BACE1 against BACE2 ([2]; ratio of Ki values): over 100 fold
